Format in all cases: in vivo
Experiment [1] has as its system ob/ob mice. In words: Body weight in ob/ob mice, 4 week IP treatment. Conditions: 3 mg/kg IP twice daily for 4 weeks. The method, then: (§1) In vivo studies were conducted to observe the effect of MCR-4 agonists on energy intake, body weight, hyperinsulinemia, and glucose levels. All studies were conducted with male-9–10 week old ob/ob mice which display early onset of obesity, insulin resistance and diabetes due to leptin deficiency. Mice were acclimated in the facility for 1 week before studies and are caged individually. Vehicle-treated (control) and drug treated mice studies were always run in parallel. In multi-day studies, mice (8–15 per group) were monitored for baseline body weight, fasting levels of glucose, insulin, blood lipids and energy expenditure and then injected twice daily (9 a.m. and 5 p.m.) with 3 mg/kg of the MC4-R agonist 4-[(N-cyclohexyl-3,5-dimethyl-piperazine-1-carboximidoyl)-amino]-N-[2-(2,4-dichlorophenyl)-ethyl]-benzamide for 4 weeks. Body weight as well as food and water intake were monitored daily. […] Energy expenditure (resting metabolic rate, i.e., O2 consumption and CO2 production) were monitored in air tight chambers at the end of the study on fed animals. O2 consumption and CO2 production were measured using Oxymax systems (Columbus Instruments). […] Blood glucose and oral glucose tolerance were measured using a glucose monitor (Onetouch sold by Lifescan). Free fatty acids were measured using an non-esterified free fatty acids enzymatic assay (Waco Chemicals). […]

The test system of experiment [2] is ob/ob mice. In words: Oral glucose tolerance test (OGTT) in ob/ob mice at end of study. Conditions: overnight fasted ob/ob mice at end of 4 week study, oral glucose load, vs vehicle. The method, then: as §1
In experiment [3] the test system is ob/ob mice. In words: Food intake in ob/ob mice, 4 week IP treatment. Conditions: 3 mg/kg IP twice daily for 4 weeks, vs vehicle. The method, then: as §1
Experiment [4] has as its system ob/ob mice. In words: Fasting blood glucose in ob/ob mice, 4 week IP treatment. Conditions: ob/ob mice fasted overnight, 3 mg/kg IP twice daily for 4 weeks, vs vehicle. The method, then:
as §1

Experiment [5] relates to ob/ob mice. The experiment in a line: Serum insulin levels after single IP dosing in ob/ob mice. Conditions: overnight fasted ob/ob mice. The method, then:
as §1

Experiment [6] concerns ob/ob mice. In words: Free fatty acid levels in ob/ob mice. Conditions: ob/ob mice fasted overnight, drug treated IP vs vehicle. The method, then:
as §1

Take `CC1CN(C(=NC2CCCCC2)Nc2ccc(C(=O)NCCc3ccc(Cl)cc3Cl)cc2)CC(C)N1` (stereo not shown) [4-[(N-cyclohexyl-3,5-dimethyl-piperazine-1-carboximidoyl)-amino]-N-[2-(2,4-dichlorophenyl)-ethyl]-benzamide]: in the experiment on ob/ob mice [1], the “body weight less than the vehicle treated mice at the end of the study” value was 19%. For the same compound, the “decrease of the area under the curve of glucose in OGTT” value in the experiment on ob/ob mice [2] was 45%. In addition, the food intake entry in the experiment with ob/ob mice [3] is “significant reduction in food intake”. Also, in the experiment with ob/ob mice [4], the “decrease in fasting blood glucose levels” value came out at 47%. In addition, the “decrease of serum insulin levels relative to vehicle” value in the experiment with ob/ob mice [5] (one hour after single IP dosing of 1 mg/kg) is recorded as 27%; in the experiment with ob/ob mice [5] (one hour after single IP dosing of 3 mg/kg) it was 55%. Moreover, the “decrease in free fatty acid (FFA) levels” value in the experiment on ob/ob mice [6] came to 50%.

For the origin of these results see US6995269B2, “Guanidinobenzamides” (Chiron Corporation, priority 2000, dated 2006).
